According to PubChem BioAssay (NCI):
Where “and” joins values, the source holds several entries; their conditions need not be identical. Equal values may be shown once.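 Protocol summary: plate cells (96-well), add compound at 5 concentrations, incubate 48 h, interpolate endpoints linearly. GI50 is the concentration that inhibits growth by half. TGI denotes the concentration required for complete inhibition of growth.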

How the values were obtained:
Assay in all cases: growth of human tumour cells (NCI), 48 h; in the data active = GI50 below about 0.43 µM; inactive = the rest
SK-OV-3 ovarian = tested on: SK-OV-3 ovarian
CAKI-1 renal = tested on: CAKI-1 renal
SF-268 CNS = tested on: SF-268 CNS
HOP-92 NSCLC = tested on: HOP-92 NSCLC
HL-60(TB) leukemia = tested on: HL-60(TB) leukemia
MDA-MB-435 = tested on: MDA-MB-435
HCT-15 colon = tested on: HCT-15 colon
SW-620 colon = tested on: SW-620 colon
SK-MEL-28 melanoma = tested on: SK-MEL-28 melanoma
HOP-62 NSCLC = tested on: HOP-62 NSCLC
U251 CNS = tested on: U251 CNS
RXF 393 renal = tested on: RXF 393 renal
EKVX NSCLC = tested on: EKVX NSCLC
UO-31 renal = tested on: UO-31 renal
HCT-116 colon = tested on: HCT-116 colon
SK-MEL-5 melanoma = tested on: SK-MEL-5 melanoma
SK-MEL-2 melanoma = tested on: SK-MEL-2 melanoma
NCI-H23 lung = tested on: NCI-H23 lung
CCRF-CEM leukemia = tested on: CCRF-CEM leukemia
NCI/ADR-RES ovarian = tested on: NCI/ADR-RES ovarian
MCF7 breast = tested on: MCF7 breast
IGROV1 ovarian = tested on: IGROV1 ovarian
SNB-75 CNS = tested on: SNB-75 CNS
NCI-H522 lung = tested on: NCI-H522 lung
NCI-H226 lung = tested on: NCI-H226 lung
OVCAR-3 ovarian = tested on: OVCAR-3 ovarian
M14 melanoma = tested on: M14 melanoma
KM12 colon = tested on: KM12 colon
SNB-19 CNS = tested on: SNB-19 CNS
MALME-3M melanoma = tested on: MALME-3M melanoma
OVCAR-8 ovarian = tested on: OVCAR-8 ovarian
SF-295 CNS = tested on: SF-295 CNS
A498 renal = tested on: A498 renal
DU-145 prostate = tested on: DU-145 prostate
K-562 leukemia = tested on: K-562 leukemia
MOLT-4 leukemia = tested on: MOLT-4 leukemia
PC-3 prostate = tested on: PC-3 prostate
BT-549 breast = tested on: BT-549 breast
NCI-H460 lung = tested on: NCI-H460 lung
A549 NSCLC = tested on: A549 NSCLC
HCC-2998 colon = tested on: HCC-2998 colon
OVCAR-5 ovarian = tested on: OVCAR-5 ovarian
ACHN renal = tested on: ACHN renal
T-47D breast = tested on: T-47D breast
MDA-MB-231 breast = tested on: MDA-MB-231 breast
RPMI-8226 leukemia = tested on: RPMI-8226 leukemia
OVCAR-4 ovarian = tested on: OVCAR-4 ovarian
SF-539 CNS = tested on: SF-539 CNS
HT29 colon = tested on: HT29 colon
UACC-62 melanoma = tested on: UACC-62 melanoma
HS 578T breast = tested on: HS 578T breast
TK-10 renal = tested on: TK-10 renal
COLO 205 colon = tested on: COLO 205 colon
786-0 renal = tested on: 786-0 renal
SN12C renal = tested on: SN12C renal
UACC-257 melanoma = tested on: UACC-257 melanoma
SR leukemia = tested on: SR leukemia

CC1(C)CC(=O)c2c(ccc(C(=O)C[C@H](N)CO)c2N)O1
0.612 µM and 0.0752 µM: GI50 (SR leukemia)
> 17.5 µM and 28.8 µM: TGI (TK-10 renal)
17.5 µM and 12 µM: TGI (HCC-2998 colon)
17.5 µM and 6.03 µM: TGI (CAKI-1 renal)
17.5 µM and 25.4 µM: TGI (BT-549 breast)
0.768 µM and 0.114 µM: GI50 (HCT-15 colon)
17.5 µM and 11.3 µM: TGI (M14 melanoma)
1.47 µM and 0.247 µM: GI50 (U251 CNS)
17.5 µM and 9.09 µM: TGI (HCT-15 colon)
0.647 µM and 0.117 µM: GI50 (SW-620 colon)
2.27 µM and 0.251 µM: GI50 (K-562 leukemia)
10.5 µM and 10.6 µM: TGI (UACC-62 melanoma)
17.5 µM and 7.43 µM: TGI (SF-539 CNS)
1.73 µM and 0.409 µM: GI50 (UO-31 renal)
> 17.5 µM: TGI (MDA-MB-231 breast)
0.89 µM and 0.129 µM: GI50 (NCI-H460 lung)
1.61 µM and 0.177 µM: GI50 (MOLT-4 leukemia)
17.5 µM and 26.7 µM: TGI (MOLT-4 leukemia)
17.5 µM: TGI (HOP-92 NSCLC) | TGI (IGROV1 ovarian) | TGI (NCI-H522 lung) | TGI (RPMI-8226 leukemia)
1.23 µM and 0.189 µM: GI50 (KM12 colon)
17.5 µM and 23.7 µM: TGI (NCI-H226 lung)
17.5 µM and > 33.3 µM: TGI (SF-268 CNS) | TGI (HL-60(TB) leukemia) | TGI (MDA-MB-435) | TGI (SW-620 colon) | TGI (SK-MEL-28 melanoma) | TGI (HOP-62 NSCLC) | TGI (U251 CNS) | TGI (RXF 393 renal) | TGI (UO-31 renal) | TGI (HCT-116 colon) | TGI (SK-MEL-5 melanoma) | TGI (SK-MEL-2 melanoma) | TGI (NCI-H23 lung) | TGI (CCRF-CEM leukemia) | TGI (MCF7 breast) | TGI (OVCAR-3 ovarian) | TGI (KM12 colon) | TGI (SNB-19 CNS) | TGI (OVCAR-8 ovarian) | TGI (SF-295 CNS) | TGI (A498 renal) | TGI (DU-145 prostate) | TGI (K-562 leukemia) | TGI (PC-3 prostate) | TGI (NCI-H460 lung) | TGI (A549 NSCLC) | TGI (ACHN renal) | TGI (T-47D breast) | TGI (HT29 colon) | TGI (COLO 205 colon) | TGI (SN12C renal)
inactive: GI50 (SK-OV-3 ovarian) > 17.5 µM and 12.3 µM | GI50 (CAKI-1 renal) 3.27 µM and 0.447 µM | GI50 (SF-268 CNS) 5.03 µM and 0.594 µM | GI50 (HOP-92 NSCLC) 7.04 µM | GI50 (HL-60(TB) leukemia) 8.45 µM and 6.34 µM | GI50 (MDA-MB-435) 15.3 µM and 4.47 µM | GI50 (HOP-62 NSCLC) 2.39 µM | GI50 (RXF 393 renal) 4.45 µM and 5.14 µM | GI50 (EKVX NSCLC) > 33.3 µM | GI50 (HCT-116 colon) 1.36 µM and 2.01 µM | GI50 (SK-MEL-5 melanoma) 2.87 µM and 5.08 µM | GI50 (SK-MEL-2 melanoma) 12.5 µM and 5.2 µM | GI50 (NCI-H23 lung) 6.42 µM and 0.733 µM | GI50 (NCI/ADR-RES ovarian) > 17.5 µM and 7.51 µM | GI50 (IGROV1 ovarian) 3.09 µM | GI50 (SNB-75 CNS) > 17.5 µM and 3.1 µM | GI50 (NCI-H522 lung) 2.57 µM and 4.58 µM | GI50 (SNB-19 CNS) 5.07 µM and 1.41 µM | GI50 (MALME-3M melanoma) > 33.3 µM | GI50 (OVCAR-8 ovarian) 5.68 µM and 2.17 µM | GI50 (SF-295 CNS) 5.66 µM and 3.65 µM | GI50 (A498 renal) 2.86 µM and 6.73 µM | GI50 (PC-3 prostate) 10.6 µM and 5.7 µM | GI50 (BT-549 breast) 6.44 µM and 2.87 µM | GI50 (A549 NSCLC) 7 µM and 7.1 µM | GI50 (OVCAR-5 ovarian) > 33.3 µM | GI50 (ACHN renal) 4.49 µM and 0.962 µM | GI50 (T-47D breast) 5.94 µM and 3.52 µM | GI50 (MDA-MB-231 breast) > 17.5 µM | GI50 (RPMI-8226 leukemia) 4.62 µM | GI50 (OVCAR-4 ovarian) > 33.3 µM | GI50 (HS 578T breast) > 33.3 µM | GI50 (TK-10 renal) > 17.5 µM and 5.99 µM | GI50 (COLO 205 colon) 4.92 µM and 2.07 µM | GI50 (786-0 renal) > 17.5 µM and 5.1 µM | GI50 (UACC-257 melanoma) 20.3 µM
> 33.3 µM: TGI (SK-OV-3 ovarian) | TGI (EKVX NSCLC) | TGI (NCI/ADR-RES ovarian) | TGI (SNB-75 CNS) | TGI (MALME-3M melanoma) | TGI (OVCAR-5 ovarian) | TGI (OVCAR-4 ovarian) | TGI (HS 578T breast) | TGI (786-0 renal) | TGI (UACC-257 melanoma)
